Paper PMC9106635, “Stimulation of the atypical chemokine receptor 3 (ACKR3) by a small-molecule agonist attenuates fibrosis in a preclinical liver but not lung injury model” (Cellular and Molecular Life Sciences: CMLS, 2022)

What was measured:
[1] = tested on: CCl4-induced liver fibrosis in C57BL/6J mice; assay: CCl4-induced liver fibrosis model; assay type: in vivo, mouse; conditions: 15 mg/kg/dose SC BID
Method: A preclinical mouse model for CCl4-induced liver fibrosis was performed at the Department of Metabolic Health Research, The Netherlands Organisation for Applied Scientific Research (TNO) (Leiden, The Netherlands). Fifty-two male C57BL/6J mice were matched on body weight prior to the study and divided into five groups (experimental study design, Supplementary Figure S1a). Starting at day 0, 10–12-week-old mice were intraperitoneally (i.p.) injected (three times a week) with mineral oil (group 1) or CCl4 (15% v/v in mineral oil, group 2–5) for a total of 28 days. At day 0, mice received subcutaneous treatment with compound 18a (15 mg/kg/dose, twice daily (BID), group 3), or corresponding vehicle control (23% HPBCD, twice daily (BID), groups 1 and 2)], or received daily gavage with either an ALK5/ALK4 kinase inhibitor [SM 16 (45 mg/kg/dose, PO, QD, group 5) or its corresponding vehicle control (β-cyclodextrin sulfobutyl ether sodium salt or captisol, PO, QD, group 4)]. Plasma samples were collected by a tail vein bleed at day 7. At day 28, mice were sacrificed using CO2 and additional plasma samples and liver lobes were collected. As a primary endpoint collagen surface area was determined on cross-sections of the lateral left lobe by picro sirius red (PSR) staining. As a secondary endpoint collagen content (hydroxyproline) of the left median lobe was analyzed using a chromogenic assay according to the manufacturer’s instructions (QuickZyme Biosciences, Leiden, The Netherlands).

[2] = tested on: fibrosis-related genes (liver mRNA); assay: nCounter analysis of 52 fibrosis-related genes in liver RNA; assay type: in vivo, mouse
Method: Total RNA was prepared from snap-frozen liver tissue (the lateral and medial right lobes and the caudate lobe; Supplementary Figure S1a) or lung tissue (cranial right lobe; Supplementary Figure S1b) after homogenization on ice in TRIZol. For quantitative qRT-PCR, cDNA was made from 0.5 μg of RNA using the GoScript reverse transcription system (Promega) according to the manufacturer's protocol. QRT-PCR was performed (for 40 cycles) with the Quantstudio3 Applied Biosystems (ABI) system using Sybr green (ABI) followed by melting curve analysis. Expression was calculated using the delta threshold cycle (ΔCT) method with Gapdh as reference gene (previously validated as stable house-keeping gene in the CCl4 model and in the bleomycin model, current study, not shown). Forward (F) and reverse (R) primer sequences were (5'-3'): […]; Col1a1: [NT]; Ackr3: [NT]; Cxcr4: [NT]; Golm1: [NT]; Lgals3: [NT]; Unc93b1: [NT]; Slc15a3: [NT]; Sec24d: [NT]; Cxcl10: [NT]; and […] Data are expressed as mean ± sem. For NanoString nCounter (NanoString, USA) analysis on liver RNA, a custom-designed panel of 52 fibrosis-related probes was used (the Nanostring probe list is shown in Supplementary Table 1). 100-500 ng of total RNA was hybridized according to the manufacturer's instructions. Data were normalized by scaling to a panel of four housekeeping genes (i.e., Hprt1, Actb, Ldh, Tbp; probes are listed in Supplementary Table 1) with a coefficient of variation of < 5% between conditions used for comparison. The scaled counts were base log2-transformed and data were expressed as fold-change versus the reference condition (CCl4 + 23% HPBCD). […] The resulting P-values were corrected for multiple testing with Benjamini-Hochberg to control the false discovery rate. P < 0.05 was considered as significant.

[3] = biological target: T1, hCCR5 (Homo sapiens, UniProt P51681); assay: Ca2+ mobilization assay, U87.CD4.CCR5 cells, CCL5-induced; assay type: cell-based; conditions: antagonism of CCL5 response
T1 construct: expressed in transfected cells; host or cells: U87.CD4.CCR5
T1 sequence (P51681 whole entry): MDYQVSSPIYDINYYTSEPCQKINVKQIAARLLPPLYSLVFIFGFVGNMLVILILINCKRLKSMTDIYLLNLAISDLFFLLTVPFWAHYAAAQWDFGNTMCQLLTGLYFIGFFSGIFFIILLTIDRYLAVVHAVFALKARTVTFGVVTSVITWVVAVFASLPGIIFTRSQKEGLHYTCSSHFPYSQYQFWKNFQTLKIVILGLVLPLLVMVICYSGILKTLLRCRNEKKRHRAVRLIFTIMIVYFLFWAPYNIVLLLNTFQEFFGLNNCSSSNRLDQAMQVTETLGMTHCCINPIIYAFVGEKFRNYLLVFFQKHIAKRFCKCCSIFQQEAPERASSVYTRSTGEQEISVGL
Method: The calcium (Ca^2+) mobilization assay was described in detail before. Briefly, U87.CD4.CXCR4 or U87.CD4.CCR5 cells (2 × 10^4 cells per well in DMEM/10% FBS/0.01 M HEPES) were seeded in gelatin-coated (Sigma-Aldrich; 0.1% gelatin in DPBS) black-walled 96-well plates and incubated overnight at 37 °C and 5% CO2. The next day, cells were loaded with the fluorescent Ca^2+ indicator Fluo-2 acetoxymethyl (AM) ester (4 μM final concentration; Abcam) and incubated at RT in the dark for 45 min. Then, cells were washed with assay buffer (see above) and subsequently incubated with different concentrations of compound for ~ 10 min prior to addition of 6.25 nM CXCL12 (in case of CXCR4) or 6.4 nM CCL5 (in case of CCR5). Fluctuations in intracellular Ca^2+ levels were measured in real time by the FLIPR Tetra® device (Molecular Devices) in all 96 wells simultaneously. The response (Relative Light Units, RLUs) over baseline was calculated (ScreenWorks 4.0® software, Molecular Devices) by dividing the RLUs by a base line value measured just before addition of CXCL12 or CCL5, respectively. Inhibition of the Ca^2+ response was determined taking into account negative (i.e., untreated cells without stimulation) and positive (i.e., untreated cells stimulated with either CXCL12 or CCL5) control samples.

[4] = liver d28, CCl4 + compound 18a vs. CCl4 + 23% HPBCD

## CCc1ccn2ccnc2c1N1CCCN(C(CC(N)=O)C2CCN(C(=O)C3CC4CCC3O4)CC2)CC1 (centres unmarked) [compound 18a]
[1]; CCl4-treated mice, day 28
  liver weight per body weight: not affected by compound 18a treatment
[1]; day 28, vs CCl4 + 23% HPBCD, P = 0.04
  collagen levels by PSR staining: modestly, but significantly, reduced collagen levels
[1]; day 28, vs CCl4 + 23% HPBCD, P = 0.06
  hydroxyproline levels in liver: near significant reduction of hydroxyproline levels
[2]; CCl4-challenged livers, day 28
  number of the 52 fibrosis-related genes with significantly affected expression: 8
[2]; [4]
  Fold change Adamts2 mRNA: 1.15
  Fold change Anxa3 mRNA: 0.85
  Fold change Arhgap25 mRNA: 0.87
  Fold change Arl11 mRNA: 1.09
  Fold change Arpc1b mRNA: 1.04
  Fold change Axl mRNA: 0.96
  Fold change C1qb mRNA: 0.92
  Fold change Capg mRNA: 0.85
  Fold change Ccr2 mRNA: 0.96
  Fold change Ccr5 mRNA: 0.86
  Fold change Ccr9 mRNA: 1.04
  Fold change Cd68 mRNA: 0.90
  Fold change Cd86 mRNA: 0.88
  Fold change Clec4n mRNA: 0.77
  Fold change Clec7a mRNA: 1.13
  Fold change Col3a1 mRNA: 1.40
  Fold change Col4a2 mRNA: 0.92
  Fold change Col5a1 mRNA: 0.84
  Fold change Cxcl10 mRNA: 0.74
  Fold change Cxcl16 mRNA: 1.03
  Fold change Eln mRNA: 1.25
  Fold change Enc1 mRNA: 1.09
  Fold change Fxyd5 mRNA: 0.96
  Fold change Gdf15 mRNA: 1.12
  Fold change Golm1 mRNA: 1.46
  Fold change Il1rn mRNA: 0.76
  Fold change Laptm5 mRNA: 0.90
  Fold change Lgals3 mRNA: 0.58
  Fold change Lilrb4 mRNA: 0.94
  Fold change Lox mRNA: 1.24
  Fold change Loxl2 mRNA: 1.01
  Fold change Ly86 mRNA: 1.15
  Fold change Mmp9 mRNA: 1.13
  Fold change Ms4a6a mRNA: 1.20
  Fold change Myo1f mRNA: 0.90
  Fold change Nckap1l mRNA: 0.97
  Fold change Pld4 mRNA: 0.93
  Fold change Plod2 mRNA: 1.13
  Fold change Rassf4 mRNA: 0.93
  Fold change Sdcbp mRNA: 1.08
  Fold change Sec24d mRNA: 1.22
  Fold change Serpine1 mRNA: 0.22
  Fold change Sla mRNA: 1.00
  Fold change Slc11a1 mRNA: 0.88
  Fold change Slc15a3 mRNA: 0.81
  Fold change Tgfb1 mRNA: 0.90
  Fold change Thbs2 mRNA: 1.03
  Fold change Timp1 mRNA: 1.09
  Fold change Tnc mRNA: 0.84
  Fold change Trem2 mRNA: 1.44
  Fold change Unc93b1 mRNA: 0.81
[3]
  IC50: > 40 µM
